Drawing on the supplement of paper PMC11368000, this text covers POD vs vehicle for 18 compounds.

Bounds are passed on as bounds.

One assay relates to 30171 (donor line of iPSC-derived cardiomyocytes). In words: POD (EC10) for decrease in total cell number (cytotoxicity) vs vehicle; higher = less potent (higher point of departure). The conditions noted are these: exposure time: 90 min. The procedure:
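Human iPSC-derived cardiomyocytes from 16 donors were exposed for 90 min at 37 °C to each PFAS at 0.1, 1, 10 and 100 µM in 0.5% DMSO, 384-well plates. Kinetic Ca2+ flux (FLIPR) and Hoechst nuclei counts were normalised to vehicle wells and fitted with a hierarchical Bayesian Hill model to give donor-specific PODs: EC05 for beat-rate increase or decrease and for decay-to-rise ratio increase (QT proxy), EC95 for peak-frequency loss (asystole), EC10 for total cell number loss. 0.03 µM is the lower bound.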
`O=C(O)CCC(F)(F)C(F)(F)C(F)(F)C(F)(F)C(F)(F)C(F)(F)C(F)(F)F` [3-Perfluoroheptylpropanoic_acid] had a POD vs vehicle of over 100 µM.

Regarding `OCCC(F)(F)C(F)(F)C(F)(F)C(F)(F)C(F)(F)C(F)(F)F` [6:2 Fluorotelomer alcohol], the POD vs vehicle was over 100 µM.

`O=S(=O)(O)CCC(F)(F)C(F)(F)C(F)(F)C(F)(F)C(F)(F)C(F)(F)F` [6:2 Fluorotelomer sulfonic acid]: the POD vs vehicle was over 100 µM.

`OCCC(F)(F)C(F)(F)C(F)(F)C(F)(F)C(F)(F)C(F)(F)C(F)(F)C(F)(F)F` [8:2 Fluorotelomer alcohol] showed a POD vs vehicle of over 100 µM.

`O=S(=O)(O)CCC(F)(F)C(F)(F)C(F)(F)C(F)(F)C(F)(F)C(F)(F)C(F)(F)C(F)(F)F` [8:2 Fluorotelomer sulfonic acid] came in with a POD vs vehicle of over 100 µM.

In turn, `O=C(O)C(F)(F)C(F)(F)C(F)(F)C(F)(F)C(F)(F)C(F)(F)C(F)(F)C(F)(F)Cl` [9-Chloro-perfluorononanoic_acid] came in with a POD vs vehicle of 30.5 µM.

With `O=P(O)(O)CCC(F)(F)C(F)(F)C(F)(F)C(F)(F)C(F)(F)C(F)(F)C(F)(F)C(F)(F)F` [((Perfluorooctyl)ethyl)phosphonic_acid], the POD vs vehicle is over 100 µM.

In the case of `OCC(F)(F)C(F)(F)C(F)(F)C(F)(F)C(F)(F)C(F)F` [Dodecafluoroheptanol], the POD vs vehicle came to 46.4 µM.

As to `COC(=O)C(F)(F)C(F)(F)OC(F)(C(F)(F)F)C(F)(F)OC(F)=C(F)F` (stereo not given) [Methyl_perfluoro(3-(1-ethenyloxypropan-2-yloxy)propanoate)], the POD vs vehicle was over 100 µM.

The compound `CN(CCO)S(=O)(=O)C(F)(F)C(F)(F)C(F)(F)C(F)(F)C(F)(F)C(F)(F)C(F)(F)C(F)(F)F` [N-Methyl-N-(2-hydroxyethyl)perfluorooctanesulfonamide] registered a POD vs vehicle of over 100 µM.

`NC(=O)C(F)(F)C(F)(F)C(F)(F)C(F)(F)C(N)=O` [Octafluoroadipamide] yielded a POD vs vehicle of over 100 µM.

In turn, `O=C(O)C(F)(F)C(F)(F)C(F)(F)OC(F)(F)F` [Perfluoro(4-methoxybutanoic)_acid] gave a POD vs vehicle of over 100 µM.

In the case of `O=C(O)C(F)(F)C(F)(F)OC(F)(F)F` [Perfluoro-3-methoxypropanoic_acid], the POD vs vehicle is over 100 µM.

In the case of `O=C(O)C(F)(F)C(F)(F)C(F)(F)F` [Perfluorobutanoic_acid], the POD vs vehicle was over 100 µM.

Take `O=C(O)C(F)(F)C(F)(F)C(F)(F)C(F)(F)C(F)(F)C(F)(F)C(F)(F)C(F)(F)C(F)(F)F` [Perfluorodecanoic_acid]: the POD vs vehicle is over 100 µM.

Compound `NS(=O)(=O)C(F)(F)C(F)(F)C(F)(F)C(F)(F)C(F)(F)C(F)(F)F` [Perfluorohexanesulfonamide] registered a POD vs vehicle of over 100 µM.

Regarding `O=S(=O)(O)C(F)(F)C(F)(F)C(F)(F)C(F)(F)C(F)(F)C(F)(F)F` [Perfluorohexanesulfonic_acid], the POD vs vehicle is over 100 µM.

On to `O=C(O)C(F)(F)C(F)(F)C(F)(F)C(F)(F)C(F)(F)F` [Perfluorohexanoic_acid], for which the POD vs vehicle is over 100 µM.

In another assay the test system is 30145 (donor line of iPSC-derived cardiomyocytes). In words: POD (EC05) for increase in beat frequency (positive chronotrope) vs vehicle; higher = less potent (higher point of departure). The conditions noted are these: exposure time: 90 min. The gist of the method: (§1)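 Points of departure specific to each donor were obtained from hierarchical Bayesian Hill fits to vehicle-normalised beat frequency, decay-to-rise ratio or peak frequency. Thresholds were set at 5% change, or 95% loss in the case of peak frequency. The cells were human iPSC-derived cardiomyocytes from 16 donors, exposed for 90 min at 37 °C to 0.1, 1, 10 and 100 µM (final, 0.5% DMSO), with Ca2+ flux read on a FLIPR Tetra before and after exposure.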
As to `O=C(O)CCC(F)(F)C(F)(F)C(F)(F)C(F)(F)C(F)(F)C(F)(F)C(F)(F)F` [3-Perfluoroheptylpropanoic_acid], the POD vs vehicle was over 100 µM.

Regarding `OCCC(F)(F)C(F)(F)C(F)(F)C(F)(F)C(F)(F)C(F)(F)F` [6:2 Fluorotelomer alcohol], the POD vs vehicle was over 100 µM.

The compound `O=S(=O)(O)CCC(F)(F)C(F)(F)C(F)(F)C(F)(F)C(F)(F)C(F)(F)F` [6:2 Fluorotelomer sulfonic acid] displayed a POD vs vehicle of over 100 µM.

With `OCCC(F)(F)C(F)(F)C(F)(F)C(F)(F)C(F)(F)C(F)(F)C(F)(F)C(F)(F)F` [8:2 Fluorotelomer alcohol], the POD vs vehicle is over 100 µM.

As for `O=S(=O)(O)CCC(F)(F)C(F)(F)C(F)(F)C(F)(F)C(F)(F)C(F)(F)C(F)(F)C(F)(F)F` [8:2 Fluorotelomer sulfonic acid], the POD vs vehicle is over 100 µM.

Consider `O=C(O)C(F)(F)C(F)(F)C(F)(F)C(F)(F)C(F)(F)C(F)(F)C(F)(F)C(F)(F)Cl` [9-Chloro-perfluorononanoic_acid], for which the POD vs vehicle was over 100 µM.

The compound `O=P(O)(O)CCC(F)(F)C(F)(F)C(F)(F)C(F)(F)C(F)(F)C(F)(F)C(F)(F)C(F)(F)F` [((Perfluorooctyl)ethyl)phosphonic_acid] returned a POD vs vehicle of over 100 µM.

Regarding `OCC(F)(F)C(F)(F)C(F)(F)C(F)(F)C(F)(F)C(F)F` [Dodecafluoroheptanol], the POD vs vehicle is over 100 µM.

Take `COC(=O)C(F)(F)C(F)(F)OC(F)(C(F)(F)F)C(F)(F)OC(F)=C(F)F` (stereo not given) [Methyl_perfluoro(3-(1-ethenyloxypropan-2-yloxy)propanoate)]: the POD vs vehicle is over 100 µM.

In the case of `CN(CCO)S(=O)(=O)C(F)(F)C(F)(F)C(F)(F)C(F)(F)C(F)(F)C(F)(F)C(F)(F)C(F)(F)F` [N-Methyl-N-(2-hydroxyethyl)perfluorooctanesulfonamide], the POD vs vehicle is over 100 µM.

In turn, `NC(=O)C(F)(F)C(F)(F)C(F)(F)C(F)(F)C(N)=O` [Octafluoroadipamide] gave a POD vs vehicle of over 100 µM.

Compound `O=C(O)C(F)(F)C(F)(F)C(F)(F)OC(F)(F)F` [Perfluoro(4-methoxybutanoic)_acid] gave a POD vs vehicle of over 100 µM.

As for `O=C(O)C(F)(F)C(F)(F)OC(F)(F)F` [Perfluoro-3-methoxypropanoic_acid], the POD vs vehicle was over 100 µM.

The compound `O=C(O)C(F)(F)C(F)(F)C(F)(F)F` [Perfluorobutanoic_acid] came in with a POD vs vehicle of over 100 µM.

`O=C(O)C(F)(F)C(F)(F)C(F)(F)C(F)(F)C(F)(F)C(F)(F)C(F)(F)C(F)(F)C(F)(F)F` [Perfluorodecanoic_acid] registered a POD vs vehicle of over 100 µM.

Consider `NS(=O)(=O)C(F)(F)C(F)(F)C(F)(F)C(F)(F)C(F)(F)C(F)(F)F` [Perfluorohexanesulfonamide], for which the POD vs vehicle was over 100 µM.

In turn, `O=S(=O)(O)C(F)(F)C(F)(F)C(F)(F)C(F)(F)C(F)(F)C(F)(F)F` [Perfluorohexanesulfonic_acid] showed a POD vs vehicle of over 100 µM.

The compound `O=C(O)C(F)(F)C(F)(F)C(F)(F)C(F)(F)C(F)(F)F` [Perfluorohexanoic_acid] yielded a POD vs vehicle of over 100 µM.

Another assay relates to 1516 (donor line of iPSC-derived cardiomyocytes). In words: POD (EC05) for increase in Ca2+ transient decay-to-rise ratio (QT prolongation) vs vehicle; higher = less potent (higher point of departure). The settings on record: exposure time: 90 min. Summed up:
as §1
With `O=C(O)CCC(F)(F)C(F)(F)C(F)(F)C(F)(F)C(F)(F)C(F)(F)C(F)(F)F` [3-Perfluoroheptylpropanoic_acid], the POD vs vehicle is over 100 µM.

On to `OCCC(F)(F)C(F)(F)C(F)(F)C(F)(F)C(F)(F)C(F)(F)F` [6:2 Fluorotelomer alcohol], for which the POD vs vehicle is over 100 µM.

Turning to `O=S(=O)(O)CCC(F)(F)C(F)(F)C(F)(F)C(F)(F)C(F)(F)C(F)(F)F` [6:2 Fluorotelomer sulfonic acid], the POD vs vehicle is over 100 µM.

As for `OCCC(F)(F)C(F)(F)C(F)(F)C(F)(F)C(F)(F)C(F)(F)C(F)(F)C(F)(F)F` [8:2 Fluorotelomer alcohol], the POD vs vehicle is over 100 µM.

For `O=S(=O)(O)CCC(F)(F)C(F)(F)C(F)(F)C(F)(F)C(F)(F)C(F)(F)C(F)(F)C(F)(F)F` [8:2 Fluorotelomer sulfonic acid], the POD vs vehicle is 38 µM.

`O=C(O)C(F)(F)C(F)(F)C(F)(F)C(F)(F)C(F)(F)C(F)(F)C(F)(F)C(F)(F)Cl` [9-Chloro-perfluorononanoic_acid]: the POD vs vehicle is over 100 µM.

`O=P(O)(O)CCC(F)(F)C(F)(F)C(F)(F)C(F)(F)C(F)(F)C(F)(F)C(F)(F)C(F)(F)F` [((Perfluorooctyl)ethyl)phosphonic_acid]: the POD vs vehicle was over 100 µM.

Turning to `OCC(F)(F)C(F)(F)C(F)(F)C(F)(F)C(F)(F)C(F)F` [Dodecafluoroheptanol], the POD vs vehicle was over 100 µM.

Take `COC(=O)C(F)(F)C(F)(F)OC(F)(C(F)(F)F)C(F)(F)OC(F)=C(F)F` (stereo not given) [Methyl_perfluoro(3-(1-ethenyloxypropan-2-yloxy)propanoate)]: the POD vs vehicle is over 100 µM.
